# Laboratory results published in the supplement of paper PMC11003180.
# How the values were obtained:
# Assay in all cases: drug sensitivity score (DSS) from 5-dose viability curve (DSS (area-based score, 0 = no response)); higher = more sensitive (stronger viability inhibition); extreme values may be limits of the assay
# [1] = tested on: MDCK wild-type - doxycycline; settings: doxycycline: none; 72 h
# In short: (§1)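 Parental MDCK cells without doxycycline were dispensed at 2000 cells/well onto pre-spotted 384-well plates. The plates held an oncology library of 528 drugs at five doses (1-10,000 nM) and were incubated 72 h at 37 °C. Viability was read as CellTiter-Glo luminescence and scaled per plate between vehicle and positive controls. Drug sensitivity scores came from dose-response curve fits in the Breeze pipeline.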
# [2] = tested on: MDCK wild-type + doxycycline; settings: doxycycline: 10 ng/mL; 72 h
# In short: as §1, with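 “and MDCK cells with doxycycline-inducible p60AmotL2, both given” for “without”, “doxycycline at 10 ng/mL in the medium before plating,” for “doxycycline”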
# [3] = tested on: MDCK p60AmotL2-inducible + doxycycline (p60AmotL2 expressing); settings: doxycycline: 10 ng/mL; 72 h
# In short: as §1, with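 “and MDCK cells with doxycycline-inducible p60AmotL2, both given” for “without”, “doxycycline at 10 ng/mL in the medium before plating,” for “doxycycline”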
SMILES,drug sensitivity score [1],drug sensitivity score [2],drug sensitivity score [3]
COc1cccc2c1C(=O)c1c(O)c3c(c(O)c1C2=O)C[C@@](O)(C(=O)CO)C[C@@H]3O[C@H]1C[C@H](N)[C@H](O)[C@H](C)O1 [Doxorubicin],3.7,8.3,9.8
CC[C@H](CC#N)OC(=O)N[C@@H](C)c1cccc(NC(=O)Nc2ccc(-c3cnco3)c(OC)c2)c1 [AVN944],11.1,12.6,18.5
CC1(C)CCC(CN2CCN(c3ccc(C(=O)NS(=O)(=O)c4ccc(NCC5CCOCC5)c([N+](=O)[O-])c4)c(Oc4cnc5[nH]ccc5c4)c3)CC2)=C(c2ccc(Cl)cc2)C1 [Venetoclax],0,0,0
CN(c1ncccc1CNc1nc(Nc2ccc3c(c2)CC(=O)N3)ncc1C(F)(F)F)S(C)(=O)=O,4.4,5.8,6
O=C(Nc1ccncc1)C(=O)c1cn(Cc2ccc(Cl)cc2)c2ccccc12 [Indibulin],7.2,0,10.7
Cc1cc([C@@H](C)Nc2ccccc2C(=O)O)c2nc(N3CCOCC3)cc(=O)n2c1 [AZD-6482],0,0,0
O=C(c1cc(Cc2n[nH]c(=O)c3ccccc23)ccc1F)N1CCN(C(=O)C2CC2)CC1 [Olaparib],0,0,0.2
Cn1c(Nc2ccc(C(F)(F)F)cc2)nc2cc(Oc3ccnc(-c4ncc(C(F)(F)F)[nH]4)c3)ccc21 [NVP-RAF265],0,0,0
CCOC(=O)CCNc1cc(N2CCc3ccccc3CC2)nc(-c2ccccn2)n1 [GSK-J4],13.7,3.8,3.9
CC1(C)NC(=O)N(c2ccc([N+](=O)[O-])c(C(F)(F)F)c2)C1=O [Nilutamide],0,0,0
Cc1cc(Nc2cc(N3CCN(C)CC3)nc(Sc3ccc(NC(=O)C4CC4)cc3)n2)n[nH]1 [Tozasertib],1.4,4.2,8.6
COc1ccc(S(=O)(=O)Nc2cccnc2Nc2ccc(O)cc2)cc1 [ABT-751],15.3,16.6,16
CC(C)(O)CC(=O)NCCn1ccc2ncnc(Nc3ccc(Oc4cccc(C(F)(F)F)c4)c(Cl)c3)c21 [TAK-285],1.8,3.1,6.4
COc1cc2ncnc(Nc3cccc(Cl)c3F)c2cc1OC(=O)N1CCN(C)C[C@H]1C [AZD3759],0,0,6.6
Cc1sc2c(c1C)C(c1ccc(Cl)cc1)=N[C@@H](CC(=O)Nc1ccc(O)cc1)c1nnc(C)n1-2 [Birabresib],5.8,10.7,16.6
CC#CC(=O)N1CCC[C@H]1c1nc(-c2ccc(C(=O)Nc3ccccn3)cc2)c2c(N)nccn12 [Acalabrutinib],0,0,0
CC[C@@H]1CN(C(=O)NCC(F)(F)F)C[C@@H]1c1cnc2cnc3[nH]ccc3n12 [Upadacitinib],0,0,0
Nc1nc(NC2CC2)cc(-c2cccc(Cl)c2Cl)n1 [TH588],0,0,0
Cn1cc(-c2cnn3c(N)c(Br)c([C@@H]4CCCNC4)nc23)cn1 [MK-8776],0,0,0
CCc1c(C(=O)C(N)=O)c2c(OCC(=O)O)cccc2n1Cc1ccccc1 [Varespladib],0,0,0
O=C(/C=C\n1cnc(-c2cc(C(F)(F)F)cc(C(F)(F)F)c2)n1)NNc1cnccn1 [Selinexor],15.1,16.4,16.7

SMILES,drug sensitivity score [1],drug sensitivity score [2],drug sensitivity score [3]
CO[C@H]1C[C@@H]2CC[C@@H](C)[C@@](O)(O2)C(=O)C(=O)N2CCCC[C@H]2C(=O)O[C@H]([C@H](C)C[C@@H]2CC[C@@H](OC(=O)C(C)(CO)CO)[C@H](OC)C2)CC(=O)[C@H](C)/C=C(\C)[C@@H](O)[C@@H](OC)C(=O)[C@H](C)C[C@H](C)/C=C/C=C/C=C/1C [Temsirolimus],0,2.3,10
Nc1nc(Cl)nc2c1ncn2[C@@H]1O[C@H](CO)[C@@H](O)[C@@H]1F [Clofarabine],12.1,12.9,13.8
CC(C)Oc1ccc(-c2nn([C@@H](C)c3oc4ccc(F)cc4c(=O)c3-c3cccc(F)c3)c3ncnc(N)c23)cc1F [TGR-1202],0,2.1,3.9
CCCCOc1nc(N)c2c(n1)N(Cc1cccc(CN3CCCC3)c1)CC(=O)N2 [Vesatolimod],0,0,0
C[C@@H]1CN(Cc2ccc(F)cc2)[C@@H](C)CN1C(=O)c1cc2c(C(=O)C(=O)N(C)C)cn(C)c2cc1Cl [Talmapimod],0,0,0
Cc1nn(C)c(COc2ccc(N3CCN(S(=O)(=O)N(C)C)CC3)cc2)c1-c1cccc2c(CCCOc3cccc4ccccc34)c(C(=O)O)n(CCN3CCOCC3)c12,5.1,5.3,5.3
O=C(Nc1cnn2ccc(N3CCC[C@@H]3c3cc(F)ccc3F)nc12)N1CC[C@H](O)C1 [Larotrectinib],0,0,0
CNc1nc(-c2ccc3c(N)n[nH]c3c2)cc(N2C[C@@H](C(=O)NC3CCCCC3)CC[C@H]2C)n1,0,0,0
CO[C@H]1C[C@@H]2CC[C@@H](C)[C@@](O)(O2)C(=O)C(=O)N2CCCC[C@H]2C(=O)O[C@H]([C@H](C)C[C@@H]2CC[C@@H](OCCO)[C@H](OC)C2)CC(=O)[C@H](C)/C=C(\C)[C@@H](O)[C@@H](OC)C(=O)[C@H](C)C[C@H](C)/C=C/C=C/C=C/1C [Everolimus],2.1,2.1,8
COc1cc2ncnc(Nc3ccc(F)c(Cl)c3)c2cc1NC(=O)/C=C/CN1CCCCC1 [Dacomitinib],5.3,8.4,19.3
Cn1nnc2c(C(N)=O)ncn2c1=O [Temozolomide],0,0,0
CN1CCc2c(c3ccccc3n2Cc2ccc(C(=O)NO)cc2)C1 [Tubastatin A],0,0,0.7
N#Cc1ccnc(N2C(=O)CC[C@H]2C(=O)N(c2cncc(F)c2)[C@H](C(=O)NC2CC(F)(F)C2)c2ccccc2Cl)c1 [Ivosidenib],0,0,0
CN1CCN(C2CCN(C(=O)Nc3cc(Oc4ccc(NC(=O)C5(C(=O)Nc6ccc(F)cc6)CC5)c(F)c4)ccn3)CC2)CC1 [Golvatinib],0,0,1
C[C@H]1CN(C2COC2)CCN1c1ccc(Nc2cc(-c3ccnc(N4CCn5c(cc6c5CC(C)(C)C6)C4=O)c3CO)cn(C)c2=O)nc1 [GDC-0853],0,0,0
COC(=O)c1ccc2c(c1)[nH]c1ncnc(NCCCN3CCCCC3)c12 [UM729],0,0.9,3
CC(=O)Nc1cccc(-n2c(=O)n(C3CC3)c(=O)c3c(Nc4ccc(I)cc4F)n(C)c(=O)c(C)c32)c1 [Trametinib],6.6,7.4,15.8
C[C@]12CC[C@@H]3c4ccc(O)cc4C[C@@H](CCCCCCCCC[S+]([O-])CCCC(F)(F)C(F)(F)F)[C@H]3[C@@H]1CC[C@@H]2O (stereo partly specified) [Fulvestrant],0,0,0
CNC(=O)c1ccc(-c2cnc3ncc(Cc4ccc5ncccc5c4)n3n2)cc1F [Capmatinib],0,0,0
CCS(=O)(=O)Nc1ccc(Oc2ccc(F)cc2F)c(-c2cn(C)c(=O)c3[nH]ccc23)c1 [Mivebresib],18.7,23.8,29.9
NC(=O)N1CCC(CC(=O)N2CCC([C@H]3c4ncc(Br)cc4CCc4cc(Cl)cc(Br)c43)CC2)CC1 [Lonafarnib],8.6,9.9,14.6
